Laboratory results reported in ChEMBL document CHEMBL4823315 (Bioorg Med Chem Lett, 2021).
≈ marks a conversion by molar mass, not a printed value.

Tests used:
[1] = AUC in cynomolgus monkey at 0.5 mg/kg, po; assay type: ADME, organism-based, Macaca fascicularis; set-up: dose 0.5 mg/kg; conditions: in vivo
[2] = target: Voltage-gated inwardly rectifying potassium channel KCNH2 (Homo sapiens, UniProt Q12809); experiment: Inhibition of human ERG by patch clamp assay
[3] = Apparent permeability across apical to basal side in human Caco-2 cells; assay type: ADME, cell-based
[4] = Toxicity in po dosed mouse xenografted with human MDA-MB-436 cells administered daily; assay type: organism-based; conditions: in vivo
[5] = Toxicity in mouse xenografted with human MDA-MB-436 cells assessed as loss of body weight at 25 to 75 mg/kg, po administered qd measured for 28 days; assay type: organism-based; conditions: in vivo, 672 h, dose 25-75 mg/kg, time 28 day
[6] = target: T1, Cytochrome P450 2B6 (Homo sapiens, UniProt P20813); experiment: Inhibition of CYP2B6 (unknown origin); assay type: ADME
T1 sequence (P20813 whole entry): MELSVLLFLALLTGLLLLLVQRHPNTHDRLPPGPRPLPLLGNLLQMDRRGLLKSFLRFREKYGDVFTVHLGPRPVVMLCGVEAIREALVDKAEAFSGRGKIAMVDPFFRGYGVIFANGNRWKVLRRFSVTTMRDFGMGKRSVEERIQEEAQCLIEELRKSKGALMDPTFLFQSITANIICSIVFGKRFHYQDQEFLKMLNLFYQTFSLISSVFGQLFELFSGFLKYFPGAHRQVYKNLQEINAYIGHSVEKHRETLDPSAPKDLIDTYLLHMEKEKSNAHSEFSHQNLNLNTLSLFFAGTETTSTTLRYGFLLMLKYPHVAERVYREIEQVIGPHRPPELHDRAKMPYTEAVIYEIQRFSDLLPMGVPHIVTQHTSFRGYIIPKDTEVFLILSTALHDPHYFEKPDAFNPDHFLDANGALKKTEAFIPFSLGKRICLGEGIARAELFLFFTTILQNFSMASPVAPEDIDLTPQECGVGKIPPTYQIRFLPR

[7] = target: Cytochrome P450 2C19 (Homo sapiens, UniProt P33261); experiment: Inhibition of CYP2C19 (unknown origin); assay type: ADME
[8] = Thermodynamic solubility of the compound at pH 7.4; assay type: physicochemical; conditions: buffer, read-out: Therm_solubility
[9] = Clearance in Sprague-Dawley rat at 5 mg/kg, po or 5 mg/kg, iv; assay type: ADME, organism-based; conditions: in vivo
[10] = Volume of distribution in CD-1 mouse at 5 mg/kg, po or 5 […], iv; assay type: ADME, organism-based; conditions: in vivo
[11] = tested on: MDA-MB-436; experiment: Antitumor activity against human MDA-MB-436 cells xenografted in mouse assessed as tumor growth inhibition at 200 mg/kg, po qd and measured for 28 days; assay type: functional; conditions: MDA-MB-436, po, 672 h, time 28 day, read-out: TGI

Sequence of Cytochrome P450 2C19 (P33261 whole entry): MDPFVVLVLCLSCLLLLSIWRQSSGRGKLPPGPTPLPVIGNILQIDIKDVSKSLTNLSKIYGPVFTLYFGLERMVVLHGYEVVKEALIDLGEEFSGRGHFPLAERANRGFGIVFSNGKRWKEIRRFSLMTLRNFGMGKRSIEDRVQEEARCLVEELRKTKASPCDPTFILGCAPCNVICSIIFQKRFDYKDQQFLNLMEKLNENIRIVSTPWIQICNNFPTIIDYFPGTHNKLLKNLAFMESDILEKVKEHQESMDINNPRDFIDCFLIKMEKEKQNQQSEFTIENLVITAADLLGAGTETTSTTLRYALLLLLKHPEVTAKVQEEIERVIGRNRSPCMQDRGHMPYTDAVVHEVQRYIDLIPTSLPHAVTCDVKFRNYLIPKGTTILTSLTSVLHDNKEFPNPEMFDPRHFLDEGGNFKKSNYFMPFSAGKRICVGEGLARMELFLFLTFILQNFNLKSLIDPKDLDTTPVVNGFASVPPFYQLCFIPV
Sequence of Voltage-gated inwardly rectifying potassium channel KCNH2 (Q12809 whole entry): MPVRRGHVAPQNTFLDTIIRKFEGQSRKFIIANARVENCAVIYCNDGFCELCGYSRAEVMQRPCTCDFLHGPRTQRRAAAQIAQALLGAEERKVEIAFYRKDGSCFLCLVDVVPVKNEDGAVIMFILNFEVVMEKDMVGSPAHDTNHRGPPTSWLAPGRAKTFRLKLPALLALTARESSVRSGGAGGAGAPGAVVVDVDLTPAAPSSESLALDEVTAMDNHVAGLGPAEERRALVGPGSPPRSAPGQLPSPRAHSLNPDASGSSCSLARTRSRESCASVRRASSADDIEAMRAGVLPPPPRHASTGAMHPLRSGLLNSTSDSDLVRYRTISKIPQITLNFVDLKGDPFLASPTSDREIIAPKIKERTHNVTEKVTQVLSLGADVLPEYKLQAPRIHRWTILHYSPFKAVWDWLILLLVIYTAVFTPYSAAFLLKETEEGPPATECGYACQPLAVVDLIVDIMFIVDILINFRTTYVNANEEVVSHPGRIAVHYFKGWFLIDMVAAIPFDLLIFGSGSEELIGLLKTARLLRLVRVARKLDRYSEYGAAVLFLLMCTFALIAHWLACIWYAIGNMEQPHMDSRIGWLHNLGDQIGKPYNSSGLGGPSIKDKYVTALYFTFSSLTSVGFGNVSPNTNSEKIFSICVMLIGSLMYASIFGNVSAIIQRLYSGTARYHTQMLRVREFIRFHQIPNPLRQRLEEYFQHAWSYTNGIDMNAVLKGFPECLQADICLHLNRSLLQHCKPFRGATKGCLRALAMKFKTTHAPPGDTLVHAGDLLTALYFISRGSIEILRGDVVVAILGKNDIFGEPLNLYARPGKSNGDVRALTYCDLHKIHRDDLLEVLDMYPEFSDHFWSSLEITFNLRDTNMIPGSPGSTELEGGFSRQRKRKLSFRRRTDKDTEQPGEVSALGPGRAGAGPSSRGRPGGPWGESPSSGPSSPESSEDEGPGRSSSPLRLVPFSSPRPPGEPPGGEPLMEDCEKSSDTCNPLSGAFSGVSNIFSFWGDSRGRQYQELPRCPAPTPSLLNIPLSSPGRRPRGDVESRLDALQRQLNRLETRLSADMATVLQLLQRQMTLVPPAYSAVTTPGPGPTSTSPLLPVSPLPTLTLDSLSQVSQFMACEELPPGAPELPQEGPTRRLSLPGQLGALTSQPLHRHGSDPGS

`NC(=O)c1c(N)ncnc1N1CCC(c2nc(-c3ccc(F)c(C(F)(F)F)c3)cn2CCN2CCC2)CC1` showed an AUC [1] of 82 ng·h/mL, an IC50 [2] of 17.4 µM and a Papp A→B [3] of 5.3 ×10⁻⁶ cm/s. The MTD [4] was at most 200 mg/kg, the Activity [5] was under 5% and the IC50 [6] was over 20 µM. For the same compound, the IC50 [7] was over 20 µM, the solubility thermodynamic [8] was 4 µg/mL (≈ 7.51 µM) and the clearance [9] was 312 mL/min/kg. For the same compound, the Vd [10] was 19.3 L/kg and the inhibition in vivo at 200 mg/kg [11] was 98%.
